In publication PMC8812461, “Synthesis of New 3-Arylcoumarins Bearing N-Benzyl Triazole Moiety: Dual Lipoxygenase and Butyrylcholinesterase Inhibitors With Anti-Amyloid Aggregation and Neuroprotective Properties Against Alzheimer’s Disease” (Frontiers in Chemistry, 2022):

Columns and labels:
[1] = target: T1, Aβ1-42 in the presence of AChE (Homo sapiens, UniProt P05067); assay: AChE-induced Aβ1-42 aggregation (ThT assay); assay type: biochemical; conditions: compound 100.0 μM, AChE 0.01 u/ml
T1 construct: was used to dissolve amyloid β1-40 (Sigma A1075); purchased Sigma (Aβ); Merck or Aldrich (AChE) A1075 (Aβ)
T1 sequence (P05067 672-711): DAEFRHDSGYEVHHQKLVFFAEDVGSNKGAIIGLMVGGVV

in vitro = assay type: cell-based; conditions: rat, PC12 cells, MTT, read-out: PC12 viability percent (cytotoxicity)
Experimental: The cytotoxic effect of the selected compounds (8l and 8n) on the PC12 cell line was evaluated by using the MTT-based colorimetric assay. First, the PC12 cell line was cultivated in DMEM culture medium, supplemented with fetal bovine serum (10%). […]. Thereafter, the culture medium of each well was replaced by 20 µl MTT solution (5.0 mg/ml) and incubated to form formazan crystals, followed by dissolving them in DMSO (100.0 µl) and recording the related absorbance at 570 nm using a Synergy 2 multimode plate reader (Biotek, Winooski, VT, United States). The viability percent was then calculated according to the control well, where no compound was added to the related well. The mentioned protocol was repeated in triplicates, and the mean ± SEM of the obtained results was reported.

[2] = target: T2, BuChE (from equine serum) (Equus caballus, UniProt P81908); assay: biochemical; assay type: biochemical; conditions: mean ± SEM of three experiments, read-out: eq BuChE IC50
T2 construct: BuChE from equine serum was employed for Ellman’s assay; purchased Merck or Aldrich; host or cells: equine serum
T2 sequence (P81908 whole entry): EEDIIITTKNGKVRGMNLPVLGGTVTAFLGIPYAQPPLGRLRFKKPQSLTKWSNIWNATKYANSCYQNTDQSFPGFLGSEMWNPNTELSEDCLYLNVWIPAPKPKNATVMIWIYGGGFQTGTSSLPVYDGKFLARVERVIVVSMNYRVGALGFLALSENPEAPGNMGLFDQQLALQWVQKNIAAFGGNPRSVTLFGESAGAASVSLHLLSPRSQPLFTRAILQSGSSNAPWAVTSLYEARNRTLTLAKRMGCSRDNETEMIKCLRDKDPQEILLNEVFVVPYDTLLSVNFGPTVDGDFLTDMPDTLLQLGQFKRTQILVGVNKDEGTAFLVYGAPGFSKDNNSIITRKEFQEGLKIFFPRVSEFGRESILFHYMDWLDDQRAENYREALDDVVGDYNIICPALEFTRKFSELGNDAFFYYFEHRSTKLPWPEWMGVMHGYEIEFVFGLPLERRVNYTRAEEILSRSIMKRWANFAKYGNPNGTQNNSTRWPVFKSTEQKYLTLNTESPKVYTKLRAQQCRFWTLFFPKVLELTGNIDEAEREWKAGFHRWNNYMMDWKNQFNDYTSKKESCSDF
Experimental: (§1) AChE from electrophorus electricus and BuChE from equine serum was employed for Ellman’s assay. Each compound (5.0 mg) was dissolved in 1.0 ml of DMSO. […] Briefly, a mixture of phosphate buffer (2.0 ml, 0.1 M, pH = 8.0), 60.0 µl of DTNB solution, and 20.0 µl of AChE/BuChE was prepared, and 30.0 µl of the test compounds in different concentrations were then added to the mixture. Next, a solution of the substrate (acetylthiocholine iodide/butyrylthiocholine iodide, 20.0 µl) was added to the mixture after 10 min incubation at 25°C. All experiments were performed in triplicates, and the temperature of all solutions was controlled to be maintained at 25°C. […] The blank solution was used to validate the non-enzymatic hydrolysis of the substrate during the assessment. The blank solution was prepared by a mixture of 2.0 ml of buffer, 30.0 μl of DMSO, 60.0 μl of DTNB, and 20.0 μl of substrate. The rate of the enzymatic hydrolysis of the substrate was calculated, and % inhibition of the compounds was determined. The half maximal inhibitory concentration (IC50) values were graphically determined from inhibition curves (logarithm of the concentration of the tested compound versus percent of the inhibition).

Aβ1-42 = target: T3, Aβ1-42 (Homo sapiens, UniProt P05067); assay: Self-induced Aβ1-42 aggregation (ThT assay); assay type: biochemical; conditions: for Self-induced Aβ aggregation inhibition relative to donepezil: 100.0 μM, versus donepezil; for Inhibition of self-induced Aβ1-42 aggregation: Aβ1-42 10.0 μM, compound 100.0 μM, ThT
T3 construct: was used to dissolve amyloid β1-40 (Sigma A1075); purchased Sigma A1075
T3 sequence (P05067 672-711): as the sequence (P05067 672-711) above

[3] = target: T4, 15-LOX (soybean lipoxygenase) (Glycine max, UniProt P08170); assay: Soybean 15-LOX inhibition assay; assay type: biochemical
T4 construct: purchased Merck or Aldrich
T4 sequence (P08170 1-839): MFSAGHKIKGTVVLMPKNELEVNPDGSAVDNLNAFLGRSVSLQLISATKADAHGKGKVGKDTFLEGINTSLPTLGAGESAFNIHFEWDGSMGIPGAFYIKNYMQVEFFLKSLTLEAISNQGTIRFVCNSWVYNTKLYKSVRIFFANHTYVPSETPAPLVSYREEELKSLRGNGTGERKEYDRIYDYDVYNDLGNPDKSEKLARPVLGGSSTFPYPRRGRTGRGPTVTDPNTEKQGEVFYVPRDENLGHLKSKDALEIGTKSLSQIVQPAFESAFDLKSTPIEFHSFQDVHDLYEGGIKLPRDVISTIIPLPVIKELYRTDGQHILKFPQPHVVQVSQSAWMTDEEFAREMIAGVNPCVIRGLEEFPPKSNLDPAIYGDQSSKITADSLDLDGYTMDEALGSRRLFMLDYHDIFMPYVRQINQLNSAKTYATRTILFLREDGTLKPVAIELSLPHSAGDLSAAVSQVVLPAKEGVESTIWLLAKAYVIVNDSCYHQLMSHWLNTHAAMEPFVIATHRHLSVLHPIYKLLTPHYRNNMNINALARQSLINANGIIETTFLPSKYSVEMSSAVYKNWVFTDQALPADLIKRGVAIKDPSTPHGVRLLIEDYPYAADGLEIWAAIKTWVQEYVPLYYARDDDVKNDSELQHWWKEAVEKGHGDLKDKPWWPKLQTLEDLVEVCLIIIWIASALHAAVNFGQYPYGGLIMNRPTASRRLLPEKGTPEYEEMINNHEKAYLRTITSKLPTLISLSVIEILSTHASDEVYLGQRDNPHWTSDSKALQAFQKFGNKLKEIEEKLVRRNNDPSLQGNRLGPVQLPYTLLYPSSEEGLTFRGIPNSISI
Experimental: A solution of the target compound was prepared in DMSO, and it was diluted with phosphate buffer (0.1 M, pH = 8.0).

BV-2 cells = assay: Hydrogen peroxide cell-based assay (extracellular H2O2, amyloid β-induced); set-up: species or system murine; conditions: 10.0 μM compound 3 h before amyloid β1-40 (5.0 μM), 24 h
Experimental: The BV-2 immortalized murine microglial cell line was cultured in a high-glucose Dulbecco’s modified Eagle medium (DMEM) without phenol red supplemented with 10% of FBS, %1 of L -glutamine, and 1% of penicillin–streptomycin solution. The cells were kept in a moistened atmosphere at 37°C. Quantitation of the extracellular H2O2 produced by the BV-2 cells was detected using the Oxiselect Sta-343 hydrogen peroxide assay according to the kit’s protocol. Briefly, the cells were seeded in a 384-well plate (1,000 cells/well) overnight in 50.0 μl/well of serum and phenol red free culture medium, then treated with 10.0 μM of the compounds for 3 h, prior to amyloid β1-40 treatment (5.0 μM) and incubated for 24 h. An amount of 25.0 μl of medium was collected and mixed with 250.0 μl aqueous working solution. The absorbance values at 595 nm of each well were measured using a BMG Labtech Omega FLUOstar microplate reader. BHT (butylated hydroxytoluene, Cell biolabs) was also tested as a reference antioxidant agent ([Datki et al., 2003]).

[4] = target: T5, AChE (from electrophorus electricus) (Electrophorus electricus, UniProt O42275); assay: Cholinesterase inhibition assay (Ellman's method), AChE; assay type: biochemical; conditions: test concentration not given
T5 construct: purchased Merck or Aldrich
T5 sequence (O42275 24-633): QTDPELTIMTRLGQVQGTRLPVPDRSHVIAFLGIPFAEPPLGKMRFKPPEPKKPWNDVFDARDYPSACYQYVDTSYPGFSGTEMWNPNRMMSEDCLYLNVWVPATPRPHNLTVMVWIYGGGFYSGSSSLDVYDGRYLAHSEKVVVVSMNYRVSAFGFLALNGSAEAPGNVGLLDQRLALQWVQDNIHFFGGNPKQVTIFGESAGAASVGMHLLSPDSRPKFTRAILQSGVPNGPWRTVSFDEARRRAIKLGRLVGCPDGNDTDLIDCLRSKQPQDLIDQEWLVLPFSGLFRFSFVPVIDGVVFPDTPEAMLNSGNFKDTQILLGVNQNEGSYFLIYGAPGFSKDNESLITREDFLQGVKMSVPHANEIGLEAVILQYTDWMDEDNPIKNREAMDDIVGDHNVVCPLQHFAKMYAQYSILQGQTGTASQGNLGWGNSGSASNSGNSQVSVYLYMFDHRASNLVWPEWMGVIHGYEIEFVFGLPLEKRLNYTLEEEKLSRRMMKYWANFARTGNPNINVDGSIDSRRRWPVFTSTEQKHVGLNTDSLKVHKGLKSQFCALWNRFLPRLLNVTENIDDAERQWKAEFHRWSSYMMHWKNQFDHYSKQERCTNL
Experimental: as §1

BuChE = target: T6, BuChE (Equus caballus, UniProt P81908); assay: Kinetic study of BuChE inhibition (Lineweaver–Burk); assay type: biochemical; conditions: secondary plot; inhibitor 0, 10.0, 20.0, 40.0 µM; read-out: Inhibitory constant (Ki) for BuChE
T6 construct: BuChE from equine serum was employed for Ellman’s assay; purchased Merck or Aldrich; host or cells: equine serum
T6 sequence (P81908 whole entry): as the sequence (P81908 whole entry) above
Experimental: Kinetics of the BuChE inhibition activity was studied for compound 8l at different inhibitor concentrations (0, 10.0, 20.0, and 40.0 µM) as mentioned in the ChE inhibition assay section. Different concentrations of the substrate (S) and butyrylthiocholine iodide (BuChI) were applied to obtain the initial velocity measurements, in each case. The reciprocal of the S (1/S) was plotted against the initial velocity (1/v) ([Rampa et al., 2000]). […] […]. Ellman’s method was utilized to assess anti-AChE/BuChE activity of the synthesized compounds ([Ellman et al., 1961]). AChE from electrophorus electricus and BuChE from equine serum was employed for Ellman’s assay. Each compound (5.0 mg) was dissolved in 1.0 ml of DMSO. […] Briefly, a mixture of phosphate buffer (2.0 ml, 0.1 M, pH = 8.0), 60.0 µl of DTNB solution, and 20.0 µl of AChE/BuChE was prepared, and 30.0 µl of the test compounds in different concentrations were then added to the mixture. […] The change in the absorbance wavelength of 412 nm was recorded for 1 min. […] The rate of the enzymatic hydrolysis of the substrate was calculated, and % inhibition of the compounds was determined. The half maximal inhibitory concentration (IC50) values were graphically determined from inhibition curves (logarithm of the concentration of the tested compound versus percent of the inhibition).

Row | Structure (SMILES) | inhibition at 100 µM [1] [%] | viability at 24 h, 50 µM (in vitro) [%] | IC50 [2] [µM] | Self-induced Aβ aggregation inhibition relative to donepezil (Aβ1-42) [times] | Inhibition of self-induced Aβ1-42 aggregation (Aβ1-42) [%] | IC50 [3] [µM] | H2O2 level of BV-2 cells (% ± SEM of control) (BV-2 cells) | ee AChE %inhib. [4] [%] | Ki (BuChE) [µM]
1 | COc1cccc(Cn2cc(COc3ccc(-c4cc5ccccc5oc4=O)cc3)nn2)c1 [8l, 3-(4-((1-(3-Methoxybenzyl)-1H-1,2,3-triazol-4-yl)methoxy)phenyl)-2H-chromen-2-one] | 36.2 ± 6.1 | 96.5 ± 0.9 | 19.5 ± 0.9 | 1.44 | 61.3 ± 4.8 | 39.1 ± 1.1 | 97.6 ± 6.1 % of control | 16.5 | 14.1
2 | COc1cccc2cc(-c3ccc(OCc4cn(Cc5ccccc5)nn4)cc3)c(=O)oc12 [8n, 3-(4-((1-Benzyl-1H-1,2,3-triazol-4-yl)methoxy)phenyl)-8-methoxy-2H-chromen-2-one] | 25.1 ± 8.7 | 95.2 ± 1.1 | 45.1 ± 1.3 | 1.79 | 76.2 ± 6.4 | 42.5 ± 1.7 | 122.4 ± 8.3 % of control | 49.9 | –
3 | Cc1cc(C(C)(C)C)c(O)c(C(C)(C)C)c1 [BHT, butylated hydroxytoluene, reference compound] | – | – | – | – | – | – | 114.4 ± 8.5 % of control | – | –
